This note sets out measurements from a melting point compilation (Tetko et al.; mined from patent text by program, amines drawn as free bases though some values may be those of a salt).

SMILES strings stand for the structures. A value given as a limit tells only on which side of the number the result lay.

In general, melting point refers to the temperature of the solid-liquid transition. On to `Cc1nnc(-c2cc3cccc(NS(=O)(=O)c4cccs4)c3[nH]2)s1`, for which the melting point was in the range of 308 to 309 °C.
With `CCCC1=C(C(=O)OCC)C(c2ccncc2)c2c[nH]nc2N1` (configuration not stated) the figure was 266 °C; with `CC(C)[C@H](OCc1ccccc1)[C@H]1[C@H]([N+](=O)[O-])[C@H](c2ccccc2)N[C@@H]1C(=O)NCC(=O)O`, 71 to 72 °C; with `COc1ccc(C(=O)c2ccc(Cl)cc2Cl)cc1Cl`, 98 °C.
As for `CCCCc1nc2cccc(C(=O)OCCO)c2n1Cc1ccc(-c2ccccc2-c2nnn[nH]2)cc1`, the melting point was 145 to 147 °C.
The figure for `COc1ccc(C2=C(CO)c3ccc(OC)cc3CC2)cc1` is 121 °C; for `COC(=O)c1csc(NC(=O)C(CC2CCCC2)c2ccc(Cl)cc2)n1` (configuration not stated) it is 156 to 157 °C; for `CCCCNC(=O)C(C)(C)COc1cccc2nc(C)c(C(=O)O)c(N)c12` it is 195 to 199 °C.
Consider `CC(C)(C)C(=O)Nc1nc2[nH]c3cccc(Cl)c3c2c(=O)[nH]1`, for which the melting point was in the range of 186 to 190 °C.
The figure for `CSC(Nc1ccc2c(c1)OCO2)=C(C#N)S(C)(=O)=O` is 168 to 170 °C; for `COc1cc2c(cc1F)CCN=C2C1(c2ccccc2Cl)CC1` it is 172 to 176 °C; for `O=C(c1ccc(F)cc1)C1CCN(CCN(C(=O)c2ccc([N+](=O)[O-])cc2)c2cccc(C(F)(F)F)c2)CC1` it is 123 to 137 °C.
The figure for `CC(C)=C1C(=O)N(c2ccc(N)cc2)C(=O)/C1=C(\C)c1cc(-c2ccccc2)sc1C` is 193 to 195 °C; for `COCCc1nc2c(N)nc3ccccc3c2n1CCC(=O)N1CCOCC1` it is 125 to 126 °C.
On to `Cc1csc2ncc(C=O)n12`, for which the melting point fell in the range of 163 to 165 °C.
With `N#Cc1nn(-c2c(Cl)cc(C(F)(F)F)cc2Cl)cc1-c1cc(Br)no1` the figure was 145 °C; with `COc1ccc2c(c1)N(CCCN1CCC(CCO)CC1)c1cccc(SC)c1S2`, 101 to 103 °C; with `COC(=O)c1cc(O)cc(-c2ccccc2)c1`, 108 to 110 °C.
The figure for `Cc1oc(C=Cc2cccc(C(F)(F)F)c2)nc1CC#N` is 107 to 108 °C.
With `CN(C)CCSc1cc(NC(=O)OC(C)(C)C)c([N+](=O)[O-])cc1I` the figure was 144 °C; with `O=C(c1ccccc1)c1cc(Cl)ccc1N=C=S`, 63 to 65 °C; with `Cc1cc(Cl)nn2c(-c3ccnc4[nH]ccc34)c(-c3ccc(F)cc3)nc12`, 226 to 228 °C.
`COc1cc(Cc2cnc(N)nc2N)cc(C=Cc2ccccc2)c1OC`: the melting point amounted to 226 °C.
With `Cc1cc(Br)cnc1CCCCNc1ncc(Cc2ccc3c(c2)OCO3)c(=O)[nH]1` the figure was 145 to 146 °C.
For `COc1ccc2cc(-c3csc(Cc4c(Cl)cccc4Cl)n3)ccc2c1`, the melting point lay within 136 to 138 °C.
Regarding `COCC1CN(c2ccc(C3CCC(OCCCCC(N)=O)CC3)cc2)C(=O)O1` (racemic), the melting point was in the range of 72 to 74 °C.
The molecule `CC(O)Cn1cnc2cnc3ccccc3c21` (configuration not stated) displayed a melting point of 171 °C.
With `CC1Sc2ccccc2N1C(=S)Nc1cccc(Cl)c1` (configuration not stated) the figure was 120 to 122 °C; with `CCc1cc2c(-c3ccccc3Cl)nc(=O)n(C)c2s1`, 99 °C.
`COC(=O)c1cc(C(=O)N2CCCC(=O)C2)c2cc(Cc3ccc(F)cc3)cnc2c1O` had a melting point of 228 to 229 °C.
With `COc1ccc(-c2csc(Nc3cc4ccccc4cn3)n2)cc1` the figure was 224 to 228 °C.
The figure for `Oc1c(Cl)cc(-c2ccco2)cc1Cl` is 68 to 70 °C; for `NC(=O)c1ccc(NC2CCN(Cc3ccccc3)CC2)cc1` it is 192 to 193 °C.
On to `COc1cc(C(C)=O)ccc1OCCCN1CCC(C(O)(c2ccc(F)cc2)c2ccc(F)cc2)C1` (configuration not stated), for which the melting point is 44 to 46 °C.
Molecule `CN(C)C=C1Cc2c(Cl)cccc2C1=O` registered a melting point of 148 to 150 °C.
The figure for `O=[N+]([O-])c1ccc(OCC2CCN(c3ccncc3)CC2)cc1` is 119 to 120 °C; for `CN(C)Cc1cc(C(C)(C)C)cc(C(C)(C)C)c1O` it is 54 to 56 °C.
On to `NS(=O)(=O)c1ccccc1CN1CCCC1`, for which the melting point lay in the range of 110 to 112 °C.
The figure for `CC(=Cc1ccccc1)C(C#N)=NOS(C)(=O)=O` is 105 to 107 °C; for `Cc1cccc(C#Cc2cccc(C#N)c2)n1` it is 120 to 123 °C; for `CCc1nc2c(C)cc(C)nc2n1Cc1ccc(C(c2ccccc2)C(C)C(=O)NS(C)(=O)=O)cc1` (configuration not stated) it is 117 to 120 °C.
In turn, `O=C1OC(CN2CCC(O)(c3ccc(F)cc3)CC2)CN1c1ccccc1` (configuration not stated) returned a melting point of 128 to 129 °C.
The molecule `CCc1nc2sc3ccccc3n2c1CO` displayed a melting point of 180 to 182 °C.
As for `CSC(=Nc1c(C)nn(C)c1C)Nc1cc(Cl)ccc1C`, the melting point lay in the range of 134 to 135 °C.
For the molecule `O=C(CCl)NCc1ccc2ccn(C3CCN(CCc4ccc(F)cc4)CC3)c2c1`, the melting point lay in the range of 143 to 144 °C.
With `CC(C)(C)C(=O)Nc1nc(Cl)c2c(n1)[nH]c1ccccc12` the figure was 234 °C; with `Cc1cc(C(C)(C)C)c(OC(=O)c2cc(C(C)(C)C)c(O)c(C(C)(C)C)c2)c(C)c1COC(=S)c1cc(C(C)(C)C)c(O)c(C(C)(C)C)c1`, 225 to 228 °C.
Consider `COC(C)(C)O[C@@H]1C(=O)N(C(=O)OC(C)(C)C)[C@@H]1c1ccccc1` (relative stereo), for which the melting point fell in the range of 90 to 92 °C.
The figure for `Cc1c2c(c(Br)c(C(C)C)c1OCc1ccccc1)OC(C)(C)C2` is 156 °C.
The figure for `CN1CCC(N(C)C(=O)c2ccc(Nc3nccc(Nc4ccc(C(F)(F)F)cc4)n3)cc2)CC1` is 238 to 244 °C; for `CCOC(=O)c1cnn(-c2ccc(OC(F)(F)F)cc2)c1` it is 114 to 116 °C.
In turn, `CCOC(=O)C(O)(Cc1ccc2ccccc2n1)C(=O)OCC` came in with a melting point of 71 to 72 °C.
Molecule `COC1=C(OC)C(=O)c2cc(Sc3ccccc3Cl)ccc2C1=O` had a melting point of 125 to 126 °C.
Take `NC(CC(=O)c1ccc(N2CCN(c3ccncc3)CC2)cc1)C(=O)O` (configuration not stated): the melting point lay in the range of 263 to 264 °C.
With `COc1ccc(-c2ccc3cc(C(=O)O)ccc3c2)cc1` the figure was 267 to 269 °C; with `CC1S/C(=N/N=C\c2ccc(-c3ncn(-c4ccc(OC(F)(F)F)cc4)n3)cc2)N(c2ccccc2C2CC2)C1=O` (configuration not stated), 112 to 115 °C.
The figure for `N#Cc1ccc(N2C(=O)N(CCCCO)C3(CCCCC3)C2=O)cc1C(F)(F)F` is 145 °C.
With `CCCCOc1ccc(S(=O)(=O)C2(C(=O)NO)CCN(Cc3ccc(OCCN4CCCCC4)cc3)CC2)cc1` the figure was 155 °C; with `C#CCOC(=O)[C@H](Cc1c[nH]cn1)NC(=O)C(Cc1cccc2ccccc12)Cc1cccc2ccccc12`, 187 to 189 °C.
On to `O=[N+]([O-])c1cccc(CBr)c1CBr`, for which the melting point lay within 68 to 70 °C.
`O=C(Nc1ccc(Cl)c2c(-n3ccnc3)ccnc12)c1c(Cl)cccc1Cl` displayed a melting point of 259 to 263 °C.
With `O=C(O)c1ccccc1C(=O)c1ccc(Cl)c(S(=O)(=O)Cl)c1` the figure was 176 to 177 °C; with `COc1ccc(C(CC2=NN(C)C(=O)C2)c2ccccc2)cc1OC1CCCC1` (configuration not stated), 105 to 108 °C.
The figure for `O=c1[nH]c2ccccc2c(=O)cc1N(CCO)CCO` is 204 to 205 °C; for `COC(=O)CCc1ccc(N2CCN(C34CCC(C#N)(CC3)CC4)C2=O)cc1` it is 195 to 197 °C.
The figure for `Nc1cc(Oc2ccc(CCO)cc2)c(N)c2c1C(=O)c1ccccc1C2=O` is 224 to 227 °C; for `Cc1c2n3ccc4c3c(c3cnccn3c-2cc(=O)c1=O)CCC4` it is greater than 80 °C.
`COc1cc(OC)nc(C(=O)NS(=O)(=O)NC(C)C)n1`: the melting point was in the range of 167 to 169 °C.
As for `CN1CCN(c2cc(Cl)cc3c2c(=O)n(Cc2ccc(C#N)cc2)c(=O)n3Cc2ccccc2)CC1`, the melting point fell in the range of 99 to 105 °C.
With `O=C(Cn1cncc(NC(=O)OCc2ccccc2)c1=O)NC(Cc1ccccc1)C(=O)C(F)(F)F` (configuration not stated) the figure was 132 to 134 °C; with `FC(F)c1nc2ccccc2n1-c1nc(Nc2cccnn2)nc(N2CCOCC2)n1`, 271 to 273 °C.
With `CN(Cc1ccc(NC(=O)C2=Cc3cc(Br)ccc3CCC2)cc1)C1CCOCC1` the figure was 116 to 121 °C; with `CCOC(=O)C1(Br)Oc2ccccc2OC1Br` (configuration not stated), 102 °C.
The molecule `COCCCOc1ccc(CCCO)c(Oc2ncc(C(F)(F)F)cc2Cl)c1` showed a melting point of 68.7 to 70.9 °C.
With `OC1(Cc2ccccc2F)CCCCCC1` the figure was 35 to 38 °C; with `COc1cc2c(cc1Br)-c1c(-c3cncs3)c3c(n1CC2)C(=O)N(C(C)(C)C)CCOC3`, 219 to 220 °C; with `CC12CCC(C(=Cc3ccc(COc4ccccc4C(=O)O)cc3)C1=O)C2(C)C` (configuration not stated), 128 °C.
The figure for `CCCCCCCCCCc1ccc2cc(O)c(SC)cc2c1` is 65.5 to 66 °C.
With `CCCN(C(=O)n1ccnc1)c1ccccc1Cl` the figure was 75.5 to 76.5 °C; with `O=C(Nc1ccc(Br)c(C(F)(F)F)c1)c1ccccc1NCc1ccncc1`, 123 to 124 °C; with `COc1ccc2c(c1OS(=O)(=O)C(F)(F)F)COCc1cc(OC)c(OC)c(OC)c1-2`, 164 °C.
In turn, `CCC(CC)(NCCCn1cnc(CCNC(=O)c2ccc(C#N)cc2)c1)c1ccccc1` came in with a melting point of 107 to 109 °C.
Turning to `COc1ccccc1CN1CCC(CCC(=O)c2ccc(N3CCCC3)cc2)CC1`, the melting point was in the range of 89 to 91 °C.
In the case of `CC(=O)O[C@@H]1[C@H](OC(C)=O)[C@@H](C)O[C@H]1n1c(Cl)nc2c(Br)c(Cl)c(Cl)cc21`, the melting point lay in the range of 138 to 141 °C.
The figure for `CC(C)(C)COc1ccc(NC(=O)c2cccn2-c2ccc(F)cc2)cc1C#N` is 181 to 182 °C; for `CCc1cccc(CC)c1NC(=O)NC1(c2cccs2)CCCCC1` it is 208 to 210 °C; for `Clc1c[nH]nc1-c1cc(Br)cc(Br)c1` it is 188 °C.
